The values below come from patent publication US7592326B2, “Method for stimulating the immune, inflammatory or neuroprotective response” (priority 2004, dated 2009).

Molecules are shown by their SMILES.

In data set [1] the test system is monocytes and granulocytes. Description: Monocyte and granulocyte recruitment after intraperitoneal injection (FACS of peritoneal fluid). It is filed as in vivo, C57BL/6 mice. As to the method: C57BL/6 mice were injected with a volume of 500 ul containing 200 nmol c-di-GMP. […] Fluid was incubated in PBS BSA azide +24G2 (anti Fc) for 15 min at 4° C., washed in PBS, washed in PBS then stained and analyzed by FACs analysis (PBS BSA azide, 30 min 4° C.). Cells were stained with directly coupled fluorescent mAbs combinations in […] FACS buffer and further collected on a FACScalibur cytofluorometer (Becton Dickinson, BD). The following mAbs were purchased: fluorescein (FITC)-coupled M1/70 (anti-CD11b, BD Pharmingen), phycoerythrin (PE)-coupled 1A8 (anti-LY-6G, BD Pharmingen), 7/4 (Caltag), allophycocyanin (APC)-coupled F4/80 (Caltag). Cells were gated according to size and scatter to eliminate dead cells and debris from analysis.

For data set [2], the system named is Human immature DCs. Description: Maturation of human monocyte-derived DCs (surface markers, flow cytometry). The class given is cell-based. The conditions noted are these: 24 hours. The protocol:
Buffy coats were obtained from healthy human volunteers and fractionated over Histopaque-1077. The peripheral blood mononuclear cells (PBMC) layer was recovered and erythrocyte-depleted by incubation in red blood cell lysis buffer for 5 minutes at room temperature. PBMCs were cultured in complete medium (RPMI 1640, 1% L-glutamine, 1% penicillin/streptomycin, and 10% low endotoxin FCS) for 2 hours in T75 flasks (Corning). Following incubation, nonadherent cells were removed by three washes with 1× PBS (Invitrogen, Carlsbad, Calif.). The remaining adherent cells were then cultured in complete medium supplemented with GM-CSF and IL-4 (50 ng/mL each). Human and murine IL-4 and GM-CSF were purchased from Peprotech (Rocky Hill, N.J.). On day 2 and day 4, the DC cultures received an additional dose of GM-CSF and IL-4 (50 ng/mL each). On day 5, non-adherent DC were harvested by gentle pipetting, counted, and plated in fresh medium containing GM-CSF and IL-4 (50 ng/mL each). […]
Surface expression of various markers was assessed using CellQuest analysis software on a FACScalibur (Becton-Dickinson) flow cytometer. Surface expression was determined using the following FITC- and PE-conjugated antibodies: CD86-FITC (Research Diagnostics), CCR7-PE (R&D Systems), CD80-FITC, CD83-FITC, HLA-DR-FITC (BD Pharmingen). The isotype control antibodies were used accordingly in all experiments and were purchased from Pharmingen. Human DC were incubated in 1% human AB serum/PBS and were incubated with rat anti-CD16/CD32 (BD Phamingen) to block non-specific binding. Total RNA was extracted using the RNeasy kit according to the manufacturer's protocol (Qiagen). […] Emitted fluorescence for each reaction was measured during the annealing/extension phase, and amplification plots were analyzed using the MX4000 software version 3.0 (Stratagene). Quantity values (i.e., copies) for gene expression were generated by comparison of the fluorescence generated by each sample with standard curves of known quantities. Next, the calculated number of copies was divided by the number of copies of the housekeeping gene GAPDH.
For orientation: A flow cytometer gives signals particle by particle.

In data set [3] the test system is PR8 followed by D39 or NCH57. Kind of data set: Secondary bacterial pneumonia following influenza infection in mice (proposed). The following applies: 200 nmol/animal 24- and 48 hours prior to bacterial challenge. It is filed as in vivo. As to the method:
To show the effect of c-di-GMP secondary bacterial pneumonia following influenza infection, groups of 6 mice are infected with 100 TCID50 of PR8 and challenged 7 days later with either 1000 CFU of D39, or 1×10^7 CFU of NCH57 and followed twice daily for weight loss, development of secondary bacterial infections by bioluminescent imaging, and mortality. One group of mice is treated with c-di-GMP 24- and 48 hours (e.g., orally, intransal, i.p, s.q. i.m.) prior to bacterial challenge with 200 nmol/animal.

In data set [4] the test system is Primary hippocampal cells. Description: Staurosporine-induced cell death in primary hippocampal cultures (CellTiter 96 AQueous Assay). It is filed as cell-based. The protocol: To assess the role of cyclic dinucleotides in modulating the neurological response, i.e., prevent cell death induced by staurosporine (STS) in primary hippocampal nerve cells, the effects of c-di-GMP on hippocampal cells was analyzed. Primary hippocampal cells were prepared according to previously described methods (Pereira et al., 1993). Briefly, the hippocampi were dissected from the brain of 18-day-old fetal rats. Following enzymatic and mechanical dissociation, cells were plated at a density of 100,000 cells/well in 96-well plates pre-coated with matrigel. At the 7th day after plating, cultures were subjected to one of the following treatments: (i) vehicle (24 h), (ii) STS (100 nM, 22 h), (iii) c-di-GMP (24 h), (iv) c-di-GMP (2 h) followed by c-di-GMP -plus-STS (22 h), (v) c-di-GMP -plus-STS (24 h), or (vi) STS (2 h) followed by c-di-GMP -plus-STS (22 h). At the end of the treatments, cell viability was analyzed using CellTiter 96® AQueous Assay (Promega). The assay involves the spectrophotometric measurement (at 490 nm) of the mitochondrial conversion of a tetrazolium dye into a colorful product. The absorbance of the assay correlates with the number of metabolically active cells.

Regarding `Nc1nc(=O)c2ncn([C@@H]3OC4COP(=O)(O)O[C@H]5[C@@H](O)[C@H](n6cnc7c(=O)nc(N)[nH]c76)O[C@@H]5COP(=O)(O)OC4C3O)c2[nH]1` (stereo partly drawn) [c-di-GMP, Bis(3′→5′)-cyclic diguanylic acid], the “recruitment of F4/80^high LY-6G^med (monocytes) and F4/80^med LY-6G^high (granulocytes)” value in data set [1] (200 nmol i.p., peritoneal lavage at 18 hours) is recorded as “induced the recruitment”. Also, the “macrophage and granulocyte recruitment in vivo relative to comparators” value in data set [1] (under the conditions tested) was “to a greater extent than CpG ODN and LPS”. For the same compound, the “CD83 expression, net MFI” value in data set [2] (200 uM c-di-GMP or LPS (positive control), untreated net MFI=4.89, FIG. 10A) came to 63.34. In data set [2] (200 uM, FIG. 10C), the “expression of maturation markers CD80, CD86, CCR7, and MHC class II” value was “increase”. Further, in data set [2] (5 to 500 uM, FIG. 10B), the “concentration at which significant increases in surface CD83 begin” value stood at 32 µM. In addition, the survival entry in data set [3] is “greater survival”. Also, the “number of metabolic active cells vs STS alone” value in data set [4] (0.1-10 μM applied together with or after STS) is on record as “on average higher”. Further, the “STS-induced cell death, pre-treatment” value in data set [4] (0.1-10 μM, 2 h before STS 100 nM, FIG. 5) is “prevented the STS-induced cell death”. Besides, the “toxicity to primary hippocampal cultures” value in data set [4] (24 h) was “not toxic”.
